Where two headings read alike, the source gives them in different places.
Experiments:
[1] = target: human ERβ (Homo sapiens (Human), UniProt Q92731); assay: Fluorescence polarization competitive binding assay, ERβ; settings: for ERβ RBA (%): percent of the binding affinity of 17β-estradiol (RBA = 100%)
[2] = test system: primary hippocampal neurons; assay: Glutamate-induced neurotoxicity, LDH release; settings: for LDH Release (% of Control): 48 h pretreatment, 5-min glutamate, LDH 24 h later; for concentration that elicited the maximal neuroprotective effects: from the dose-response analyses, administered alone
[3] = test system: adult ovariectomized rats; assay: Uterine weight in adult ovariectomized rats; settings: 6 mg/kg BW
[4] = target: human ERα (Homo sapiens (Human), UniProt P03372); assay: Fluorescence polarization competitive binding assay, ERα; settings: for ERα RBA (%): percent of the binding affinity of 17β-estradiol (RBA = 100%)
[5] = test system: adult ovariectomized rats; settings: rat, in vivo
[6] = 2 subcutaneous injections once daily, 24 h after 2nd injection
[7] = compared with vehicle-treated control (set as 0)

SMILES	LDH Release (% of Control) ([2]; 1 nM)	LDH Release (% of Control) ([2]; 10 nM)	LDH Release (% of Control) ([2]; 100 nM)	LDH Release (% of Control) ([2]; 1 μM)	LDH Release (% of Control) ([2]; 10 μM)	concentration that elicited the maximal neuroprotective effects [2]	further results
O=c1nc2n(c3cc4ccccc4cc13)Cc1ccccc1-2 [Compd 12]	–	–	–	–	–	–	binding to ERβ [1]: either very weak or no binding
O=c1c(-c2ccc(O)cc2)coc2cc(O)cc(O)c12 [genistein]	361.03 ± 7.71 % of Control	350.02 ± 8.21 % of Control	347.24 ± 16.96 % of Control	356.79 ± 11.15 % of Control	377.84 ± 8.45 % of Control	100 nM	Uterine Dry Weight [3, 6]: 28.14 ± 2.04 mg; Uterine Wet Weight [3, 6]: 144.11 ± 10.18 mg; Uterine Dry Weight Increase (%) [3, 7]: 6.49 ± 7.71%; Uterine Wet Weight Increase (%) [3, 7]: 12.92 ± 7.97%
Oc1ccc([C@H]2COc3cc(O)ccc3C2)cc1 [Equol, equol]	453.50 ± 23.37 % of Control	403.78 ± 17.02 % of Control	331.59 ± 9.67 % of Control	381.80 ± 12.01 % of Control	390.21 ± 9.40 % of Control	100 nM	Selectivity (β/α) ([1]; Table 2): 10.09; IC50 ([1]; Table 2, full-length human ERβ, read-out: ERβ IC50): 582 nM; ERβ RBA (%) [1]: 5.571%; IC50 [4]: 5880 nM; ERα RBA (%) [4]: 0.4306%
O=C1Oc2cc(O)cc(Cc3ccccc3)c2CC1c1ccc(Cl)cc1 (stereo not shown) [Compd 3]	–	–	–	–	–	–	IC50 ([1]; Table 1, read-out: IC50 ERβ): 250 nM
C[C@]12CC[C@@H]3c4ccc(O)cc4CC[C@H]3[C@@H]1CC[C@@H]2O [17β-Estradiol]	–	–	–	–	–	–	impact on uterine weight [5]: markedly increased
CC(=O)[C@H]1CC[C@H]2[C@@H]3CCC4=CC(=O)CC[C@]4(C)[C@H]3CC[C@]12C [Progesteron, progesterone, reference compound]	–	–	–	–	–	–	binding to ERβ [1]: does not bind; binding to ERα [4]: does not bind
O=c1c(-c2ccc(O)cc2)coc2cc(O)ccc12 [Daidzein, daidzein]	338.39 ± 16.49 % of Control	333.98 ± 9.10 % of Control	301.42 ± 7.70 % of Control	318.49 ± 15.92 % of Control	325.41 ± 26.12 % of Control	100 nM	ERβ RBA (%) [1]: 1.867%; ERα RBA (%) [4]: 0.0949%

From patent US8552057B2, “Phytoestrogenic formulations for alleviation or prevention of neurodegenerative diseases” (priority 2006, dated 2013)
